# Test results: patent publication EP0450097B1, “BENZOHETEROCYCLIC COMPOUNDS” (OTSUKA PHARMACEUTICAL CO., LTD., priority 1989, dated 1991)
# Tests used:
# V₁ receptor = target: T1, V₁ receptor (Rattus norvegicus, UniProt P30560); assay: V₁ receptor binding assay ([³H]-Arg-vasopressin, rat liver plasma membrane preparations); conditions: 37°C for 10 minutes
# T1 construct: Using rat liver plasma membrane preparations; from tissue; host or cells: rat liver plasma membranes
# Method: Using rat liver plasma membrane preparations prepared according to Ichihara's method [cf: Akira Ichihara, J. Bio. Chem., 258, 9283 (1983)], the plasma membrane (50000dpm, 2x10⁻¹⁰ M) of [³H]-Arg-vasopressin and a test compound (60 µg, 10⁻⁸-10⁻⁴ M) are incubated at 37°C for 10 minutes in 100 mM Tris-HCl buffer (pH: 8.0, 250 µl) containing 5 mM MgCl₂, 1 mM EDTA and 0.1 % BSA. After incubation, the mixture is filtered three times using the glass filter (GF/F) so as to separate the membrane preparation combined with vasopressin and then washed with the buffer (5 ml). This glass filter is taken out and mixed with liquid scintillation cocktail. The amount of [³H]-vasopressin combined with the membrane is measured by liquid scintillation counter and the rate of the inhibitory effect of the test compound is estimated according to the following equation. Rate of the inhibitory effect (%) = 100 -(C1 - B1)/(C0 - B1)X 100 [formula] C¹: The amount of [³H]-vasopressin combined with the membrane in the presence of the test compound (in prescribed amount). C⁰: The amount of [³H]-vasopressin combined with the membrane in the absence of the test compound. B¹: The amount of [³H]-vasopressin combined with the membrane in the presence of the excess amount of vasopressin (10⁻⁶ M).
# The results are expressed as IC₅₀ values, which is the concentration of the test compound required to achieve the inhibitory effect in the rate of 50 %.
# V₂ receptor = target: T2, V₂ receptor (Rattus norvegicus, UniProt Q00788); assay: V₂ receptor binding assay ([³H]-Arg-vasopressin, rat kidney plasma membrane preparations); conditions: 4°C for 3 hours
# T2 construct: Using rat kidney plasma membrane preparations; from tissue; host or cells: rat kidney plasma membranes
# T2 sequence (Q00788 whole entry): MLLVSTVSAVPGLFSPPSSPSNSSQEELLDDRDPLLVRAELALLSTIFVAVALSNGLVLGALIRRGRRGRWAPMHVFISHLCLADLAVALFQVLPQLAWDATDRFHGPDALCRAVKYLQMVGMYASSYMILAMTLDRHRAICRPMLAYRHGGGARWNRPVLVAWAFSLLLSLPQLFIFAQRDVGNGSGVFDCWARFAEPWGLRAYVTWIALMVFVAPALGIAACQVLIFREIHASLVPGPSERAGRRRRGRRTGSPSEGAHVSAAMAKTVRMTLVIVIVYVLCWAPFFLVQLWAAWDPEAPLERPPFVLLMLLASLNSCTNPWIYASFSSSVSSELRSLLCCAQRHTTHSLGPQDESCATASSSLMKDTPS
# Method in brief: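 Rat kidney plasma membranes incubated with [³H]-vasopressin and test compound, then filtered on GF/F glass filters and bound radioactivity counted by liquid scintillation.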
# T1 sequence (P30560 whole entry): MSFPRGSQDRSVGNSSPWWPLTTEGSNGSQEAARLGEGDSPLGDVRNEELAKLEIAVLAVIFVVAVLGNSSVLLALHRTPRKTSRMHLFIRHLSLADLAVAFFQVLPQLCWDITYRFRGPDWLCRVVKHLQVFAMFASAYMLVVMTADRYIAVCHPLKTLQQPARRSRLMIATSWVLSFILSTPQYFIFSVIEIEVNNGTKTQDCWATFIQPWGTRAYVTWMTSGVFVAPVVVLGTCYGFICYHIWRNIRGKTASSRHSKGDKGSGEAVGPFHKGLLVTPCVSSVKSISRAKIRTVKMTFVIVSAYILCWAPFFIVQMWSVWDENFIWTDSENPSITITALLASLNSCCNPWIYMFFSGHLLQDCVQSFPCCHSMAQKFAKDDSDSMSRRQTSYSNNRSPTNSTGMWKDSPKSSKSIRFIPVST
SMILES,IC50 (V₁ receptor) [nM],IC50 (V₂ receptor) [nM]
CCOC(=O)COc1ccccc1C(=O)Nc1ccc(C(=O)N2CCCCc3ccccc32)cc1 [compound 121],450,180
CCN(CC)C(=O)COc1ccccc1C(=O)Nc1ccc(C(=O)N2CCCCc3ccccc32)cc1 [compound 124],150,130
CN(CCO)CCOc1ccccc1C(=O)Nc1ccc(C(=O)N2CCCCc3ccccc32)cc1 [compound 125],91,280
C#CCN(CC(=O)Nc1ccc(C(=O)N2CCCCc3ccccc32)cc1)c1ccccc1 [compound 130],23,7
Cc1ccccc1C(=O)Nc1ccc(C(=O)N2CCCC(O)c3ccccc32)cc1 (stereo not drawn) [compound 143],150,8
COC1CCCN(C(=O)c2ccc(NC(=O)c3ccccc3C)cc2)c2ccccc21 (stereo not drawn) [compound 147],280,9
Cc1ccccc1C(=O)Nc1ccc(C(=O)N2CCCC(OCCCCN(C)C)c3ccccc32)cc1 (stereo not drawn) [compound 161],140,9
Cc1ccccc1C(=O)Nc1ccc(C(=O)N2CCCC(OCC(=O)N(C)C)c3ccccc32)cc1 (stereo not drawn) [compound 163],220,9
NC(=O)COC1CCCN(C(=O)c2ccc(NC(=O)c3ccccc3Cl)cc2)c2ccccc21 (stereo not drawn) [compound 164],150,10
Cc1ccccc1C(=O)Nc1ccc(C(=O)N2CCCC(OCCCN3C(=O)c4ccccc4C3=O)c3ccccc32)cc1 (stereo not drawn) [compound 172],260,23
Cc1ccccc1C(=O)Nc1ccc(C(=O)N2CCCC(OCCCN)c3ccccc32)cc1 (stereo not drawn) [compound 173],150,8
CC(=O)NCCCOC1CCCN(C(=O)c2ccc(NC(=O)c3ccccc3C)cc2)c2ccccc21 (stereo not drawn) [compound 174],140,7
Cc1ccccc1C(=O)Nc1ccc(C(=O)N2CCCC(OC(=O)N(C)C)c3ccccc32)cc1 (stereo not drawn) [compound 187],450,29
CN(C)C1CCCN(C(=O)c2ccc(NC(=O)c3ccccc3C(F)(F)F)cc2)c2ccccc21 (stereo not drawn) [compound 188],470,39
Cc1ccccc1C(=O)Nc1ccc(C(=O)N2CCSCc3ccccc32)cc1 [compound 192],54,11
Cc1ccccc1C(=O)Nc1ccc(C(=O)N2CCC(=O)Cc3ccccc32)cc1 [compound 193],170,36
CNC(=O)COC1CCCN(C(=O)c2ccc(NC(=O)c3ccccc3Cl)cc2)c2ccccc21 (stereo not drawn) [compound 195],170,10
CNC(=O)OC1CCCN(C(=O)c2ccc(NC(=O)c3ccccc3C)cc2)c2ccccc21 (stereo not drawn) [compound 196],400,13
O=C(Nc1ccc(C(=O)N2CCC=Cc3ccccc32)cc1)c1ccccc1Cl [compound 207],160,45
Cc1ccccc1C(=O)Nc1ccc(C(=O)N2CCCC(C)c3ccccc32)cc1 (stereo not drawn) [compound 208],110,7
C=C1CCCN(C(=O)c2ccc(NC(=O)c3ccccc3C)cc2)c2ccccc21 [compound 209],74,4
Cc1ccccc1C(=O)Nc1ccc(C(=O)N2CCC(O)Cc3ccccc32)cc1 (stereo not drawn) [compound 214],270,58
Cc1ccccc1C(=O)Nc1ccc(C(=O)N2CCCC(CO)c3ccccc32)cc1 (stereo not drawn) [compound 215],130,6
CCN(CC(=O)Nc1ccc(C(=O)N2CCCC(O)c3ccccc32)c(Cl)c1)c1ccccc1 (stereo not drawn) [compound 222],96,10
CC(=O)OCC1CCCN(C(=O)c2ccc(NC(=O)c3ccccc3C)cc2)c2ccccc21 (stereo not drawn) [compound 231],160,7
Cc1ccccc1C(=O)Nc1ccc(C(=O)N2CCCC(COS(C)(=O)=O)c3ccccc32)cc1 (stereo not drawn) [compound 235],88,6
COc1cc(NC(=O)c2ccccc2C)ccc1C(=O)N1CCCC(O)c2ccccc21 (stereo not drawn) [compound 238],390,20
